# Test results from patent publication US20070072246A1, “Cell-based assays for determining drug action” (priority 2003, published 2007).
# Where two headings read alike, the source gives them in different places.
# B1: IL-10: Recombinant human IL-10 (protein, UniProt P22301 19-178, looked up)
# Interleukin-10: SPGQGTQSENSCTHFPGNLPNMLRDLRDAFSRVKTFFQMKDQLDNLLLKESLLEDFKGYLGCQALSEMIQFYLEEVMPQAENQDPDIKAHVNSLGENLKTLRLRLRRCHRFLPCENKSKAVEQVKNAFNKLQEKGIYKAMSEFDIFINYIEAYMTMKIRN
# How the values were obtained:
# [1] = tested on: primary human endothelial cells (EC); assay: 3C system: endothelial cells stimulated with IL-1β, TNF-α and IFN-γ, readout parameters by cell-based ELISA; conditions: 24 hr cytokine activation; non-toxic concentrations
# Protocol: Cell culture. Human umbilical vein endothelial cells (HUVEC) were obtained from Cascade Biologics (Portland, Oreg.) and cultured in EGM-2 medium containing supplements provided by the manufacturer and 2% heat inactivated fetal bovine serum (Hyclone, Logan, Utah) and subcultured with 0.05% trypsin-0.53 mM EDTA (Mediatech, Herndon, Va.) as described by the manufacturer. […] Experiments were performed by culturing HUVEC in microtiter plates (Falcon; BD Biosciences), in the presence of cytokines (IL-1β, 1 ng/ml; TNF-α, 5 ng/ml; and IFN-γ, 100 ng/ml), activators (SAg, 20 ng/ml or LPS, 0.2 ng/ml), and/or PBMC (7.5×10^4) for the indicated times. Drugs were added 1 hr before stimulation and were present during the whole 24 hr stimulation period.
# Cell-based ELISAs. […] Briefly, microtiter plates containing treated and stimulated HUVEC (or HUVEC/PBMC) were blocked, and then incubated with primary antibodies or isotype control antibodies (0.01-0.5 μg/ml) for 1 hr. […] Plates were washed and developed with TMB substrate (Clinical Science Products, Mansfield, Mass.) and the absorbance (OD) was read at 450 nm (subtracting the background absorbance at 650 nm) with a Molecular Devices SpectraMAX 190 plate reader (Molecular Devices, Sunnyvale, Calif.).
# Data analysis. Mean OD values for each parameter were calculated from triplicate samples per experiment. […]
# [2] = tested on: PBMC and endothelial cell co-culture; assay: SAg system: PBMC and endothelial cell co-culture stimulated with superantigen; format: cell-based, human
# [3] = 24 hr SAg stimulation, non-toxic concentrations
Molecule,activity in the SAg system [2],"activity in the SAg system [2, 3]",further results
COc1cccc(-c2cc(=O)c3ccccc3o2)c1N [PD098059],,,activity in the 3C (endothelial inflammation) system [1]: induces a characteristic response profile
Cc1ccc(-c2nn(C(C)(C)C)c3ncnc(N)c23)cc1 [PP1],active,,
CC(C)(C)n1nc(-c2ccc(Cl)cc2)c2c(N)ncnc21 [PP2],active,,
CCCCOc1cc(CC2CNC(=O)N2)ccc1OC (stereo not drawn) [Ro-20-1274],,active,
Nc1nccc(-c2c(-c3ccc(F)cc3)ncn2C2CCNCC2)n1 [SB220025],,retain activity,
COc1cc2ncnc(Nc3ccc(O)cc3)c2cc1OC [WHI-P131],,active,
CC(C)N(CCC(=O)c1ccc2ccccc2c1)Cc1ccccc1 [ZM39923],,active,
O=c1cc(-c2ccc(O)cc2)oc2cc(O)cc(O)c12 [apigenin],,,activity in the 3C (endothelial inflammation) system [1]: induces a characteristic response profile
CO[C@H]1C[C@@H]2CC[C@@H](C)[C@@](O)(O2)C(=O)C(=O)N2CCCC[C@H]2C(=O)O[C@H]([C@H](C)C[C@@H]2CC[C@@H](O)[C@H](OC)C2)CC(=O)[C@H](C)/C=C(\C)[C@@H](O)[C@@H](OC)C(=O)[C@H](C)C[C@H](C)/C=C/C=C/C=C/1C [rapamycin],,active,
COc1ccc(C2CNC(=O)C2)cc1OC1CCCC1 (stereo not drawn) [rolipram],,active,
IL-1 receptor antagonist: Recombinant human IL-1ra,detects inhibition,,
B1,active,,
